Columns and labels:
[1] = Flowability by powder tester Model PT-N, Carr's flowability index method; assay type: physicochemical
Experimental: As for evaluation of flowability, parameters of angle of repose, degree of compaction, spatula angle, and degree of aggregation were measured by using a powder tester Model PT-N produced by HOSOKAWA MICRON CORP. based on the method for evaluating Carr's flowability index.

[2] = Particle diameter distribution by sieve classification; assay type: physicochemical
Experimental: Content of the 280 mesh pass particles can generally be measured according to JIS Z8815 “General procedures for sieve analysis test”. For example, the content can be determined by sieving particles through a sieve having a mesh size of 280 (53 μm) with vibration using a vibrator, and measuring weight of particles passed through the sieve. The measurement can be carried out, for example, after vibration for 5 minutes with an amplitude of 2.0 mm, and a sieve according to the JIS standard (JIS Z 8801-1) can be used as the sieve. A specific example of the sieving method is given in the examples of the specification, and accordingly, those skilled in the art can measure a content of 280 mesh pass particles by referring to the aforementioned JIS general procedures and descriptions of the examples of the specification.
In the following example, sieve classification was carried out by vibrating a sieve for 5 minutes at an amplitude of 2.0 mm using a vibrator produced by Rctsch. Powdery samples were prepared in a conventional manner by using a spray dryer with sodium N-lauroyl-L-glutamate, sodium N-myristoyl-L-glutamate, sodium N-palmoyl-L-glutamate, and sodium N-cocoyl glycinate as salts of N-long-chain acyl amino acids. Drying was performed under the following conditions.
From the samples dried by the spray drier, 280 mesh pass cut samples, 200 mesh pass cut samples, and 140 mesh pass cut samples were prepared by using sieves. […] Samples that were not subjected to sieve classification were used as controls.

[3] = 140 mesh pass cut sample (106 μm)
[4] = 200 mesh pass cut sample (75 μm)
[5] = 280 mesh pass cut sample (53 μm)
[6] = control, not subjected to sieve classification

Flowability: Angle of repose [1, 3] | Flowability: Degree of aggregation [1, 3] | Flowability: Degree of compaction [1, 3] | Flowability: Spatula angle [1, 3] | Flowability: Angle of repose [1, 4] | Flowability: Degree of aggregation [1, 4] | Flowability: Degree of compaction [1, 4] | Flowability: Spatula angle [1, 4] | Flowability: Angle of repose [1, 5] | Flowability: Degree of aggregation [1, 5] | Flowability: Degree of compaction [1, 5] | Flowability: Spatula angle [1, 5] | Flowability: Angle of repose [1, 6] | Flowability: Degree of aggregation [1, 6] | Flowability: Degree of compaction [1, 6] | Flowability: Spatula angle [1, 6] | Particle diameter distribution 53˜75 μm [2, 3] | Particle diameter distribution 75˜106 μm [2, 3] | Particle diameter distribution 106˜μm [2, 3] | Particle diameter distribution ˜53 μm [2, 3] | Molecule | further results
29.1 ° | 34.6% | 13.7% | 29.5 ° | 30.6 ° | 15.7% | 12.7% | 31.7 ° | 28.6 ° | 12.5% | 14.0% | 36.7 ° | 33.0 ° | 15.1% | 18.3% | 46.7 ° | 0% | 0% | 100% | 0% | CCCCCCCCCCCC(=O)N[C@@H](CCC(=O)[O-])C(=O)[O-].[Na+].[Na+] [Na lauroylglutamate, sodium N-lauroyl-L-glutamate] | Flowability index [1, 3]: 76.0; Flowability index [1, 4]: 77.0; Flowability index [1, 5]: 78.0; Flowability index [1, 6]: 67.0; Particle diameter distribution 53˜75 μm [2, 4]: 0%; Particle diameter distribution 75˜106 μm [2, 4]: 9.6%; Particle diameter distribution 106˜μm [2, 4]: 90.4%; Particle diameter distribution ˜53 μm [2, 4]: 0%; Particle diameter distribution 53˜75 μm [2, 5]: 8.3%; Particle diameter distribution 75˜106 μm [2, 5]: 8.8%; Particle diameter distribution 106˜μm [2, 5]: 82.9%; Particle diameter distribution ˜53 μm [2, 5]: 0%; Particle diameter distribution 53˜75 μm [2, 6]: 7.9%; Particle diameter distribution 75˜106 μm [2, 6]: 8.4%; Particle diameter distribution 106˜μm [2, 6]: 79.0%; Particle diameter distribution ˜53 μm [2, 6]: 4.7%
30.8 ° | 13.5% | 11.3% | 34.8 ° | 30.1 ° | 19.9% | 11.1% | 37.0 ° | 31.1 ° | 15.9% | 12.8% | 38.8 ° | 26.6 ° | 12.3% | 16.5% | 49.3 ° | 0% | 0% | 100% | 0% | CCCCCCCCCCCCCC(=O)N[C@@H](CCC(=O)[O-])C(=O)[O-].[Na+].[Na+] [Na myristoylglutamate, sodium N-myristoyl-L-glutamate] | Particle diameter distribution 53˜75 μm [2, 4]: 0%; Particle diameter distribution 75˜106 μm [2, 4]: 15.1%; Particle diameter distribution 106˜μm [2, 4]: 84.9%; Particle diameter distribution ˜53 μm [2, 4]: 0%; Particle diameter distribution 53˜75 μm [2, 5]: 6.5%; Particle diameter distribution 75˜106 μm [2, 5]: 14.1%; Particle diameter distribution 106˜μm [2, 5]: 79.4%; Particle diameter distribution ˜53 μm [2, 5]: 0%; Particle diameter distribution 53˜75 μm [2, 6]: 6.0%; Particle diameter distribution 75˜106 μm [2, 6]: 13.0%; Particle diameter distribution 106˜μm [2, 6]: 73.3%; Particle diameter distribution ˜53 μm [2, 6]: 7.7%
32.0 ° | 26.4% | 10.2% | 49.2 ° | 37.4 ° | 20.6% | 12.4% | 53.4 ° | 35.5 ° | 21.5% | 12.4% | 52.4 ° | 39.3 ° | 17.6% | 15.6% | 59.0 ° | 0% | 0% | 100% | 0% | CCCCCCCCCCCCCCCC(=O)N[C@@H](CCC(=O)[O-])C(=O)[O-].[Na+].[Na+] [Na palmoylglutamate, sodium N-palmoyl-L-glutamate] | Particle diameter distribution 53˜75 μm [2, 4]: 0%; Particle diameter distribution 75˜106 μm [2, 4]: 14.4%; Particle diameter distribution 106˜μm [2, 4]: 81.3%; Particle diameter distribution ˜53 μm [2, 4]: 0%; Particle diameter distribution 53˜75 μm [2, 5]: 4.8%; Particle diameter distribution 75˜106 μm [2, 5]: 17.8%; Particle diameter distribution 106˜μm [2, 5]: 77.4%; Particle diameter distribution ˜53 μm [2, 5]: 0%; Particle diameter distribution 53˜75 μm [2, 6]: 4.5%; Particle diameter distribution 75˜106 μm [2, 6]: 16.9%; Particle diameter distribution 106˜μm [2, 6]: 73.3%; Particle diameter distribution ˜53 μm [2, 6]: 5.3%
28.6 ° | 27.9% | 15.6% | 43.4 ° | 31.0 ° | 28.1% | 15.1% | 50.0 ° | 33.0 ° | 28.4% | 14.5% | 56.0 ° | 36.7 ° | 32.8% | 16.4% | 62.0 ° | 0% | 0% | 100% | 0% | sodium N-cocoyl glycinate [Na cocoylglycinate] | Particle diameter distribution 53˜75 μm [2, 4]: 0%; Particle diameter distribution 75˜106 μm [2, 4]: 9.2%; Particle diameter distribution 106˜μm [2, 4]: 90.8%; Particle diameter distribution ˜53 μm [2, 4]: 0%; Particle diameter distribution 53˜75 μm [2, 5]: 6.5%; Particle diameter distribution 75˜106 μm [2, 5]: 15.3%; Particle diameter distribution 106˜μm [2, 5]: 78.2%; Particle diameter distribution ˜53 μm [2, 5]: 0%; Particle diameter distribution 53˜75 μm [2, 6]: 4.4%; Particle diameter distribution 75˜106 μm [2, 6]: 17.1%; Particle diameter distribution 106˜μm [2, 6]: 73.0%; Particle diameter distribution ˜53 μm [2, 6]: 5.5%
